Read-outs that look alike come from different tables or passages of the source.
Assays:
Human JAK-2 = Human JAK-2 (Homo sapiens, UniProt O60674); test: JAK enzymatic assay (Eurofins KinaseProfiler/IC50Profiler, radiometric), JAK-2; type: biochemical; conditions: human JAK-2 enzyme, 9 concentrations; read-out: JAK2 affinity (IC50) category
Experimental: (§1) All enzyme assays were conducted according to Eurofins Discovery's KinaseProfiler™ and IC50Profiler™ services.
(SEQ ID NO: 2) peptide substrate, 10 mM magnesium acetate and [gamma-33P]-ATP (specific activity and concentration as required). The reaction was initiated by the addition of the Mg/ATP mix. After incubation for 40 minutes at room temperature, the reaction was stopped by the addition of phosphoric acid to a concentration of 0.5%. An aliquot of the reaction was then spotted onto a filter and washed four times for 4 minutes in 0.425% phosphoric acid and once with methanol prior to drying and scintillation counting.
(§2) Data was then imported into an internal application where each data point was expressed as % inhibition based on uninhibited and no enzyme controls.

Human JAK-3 = target: T1, Human JAK-3 (Homo sapiens, UniProt P52333); test: JAK enzymatic assay (Eurofins KinaseProfiler/IC50Profiler, radiometric), JAK-3; type: biochemical; conditions: human JAK-3 enzyme, 9 concentrations; read-out: JAK3 affinity (IC50) category
T1 construct: purchased Eurofins Discovery (KinaseProfiler / IC50Profiler service)
T1 sequence (P52333 1-1124): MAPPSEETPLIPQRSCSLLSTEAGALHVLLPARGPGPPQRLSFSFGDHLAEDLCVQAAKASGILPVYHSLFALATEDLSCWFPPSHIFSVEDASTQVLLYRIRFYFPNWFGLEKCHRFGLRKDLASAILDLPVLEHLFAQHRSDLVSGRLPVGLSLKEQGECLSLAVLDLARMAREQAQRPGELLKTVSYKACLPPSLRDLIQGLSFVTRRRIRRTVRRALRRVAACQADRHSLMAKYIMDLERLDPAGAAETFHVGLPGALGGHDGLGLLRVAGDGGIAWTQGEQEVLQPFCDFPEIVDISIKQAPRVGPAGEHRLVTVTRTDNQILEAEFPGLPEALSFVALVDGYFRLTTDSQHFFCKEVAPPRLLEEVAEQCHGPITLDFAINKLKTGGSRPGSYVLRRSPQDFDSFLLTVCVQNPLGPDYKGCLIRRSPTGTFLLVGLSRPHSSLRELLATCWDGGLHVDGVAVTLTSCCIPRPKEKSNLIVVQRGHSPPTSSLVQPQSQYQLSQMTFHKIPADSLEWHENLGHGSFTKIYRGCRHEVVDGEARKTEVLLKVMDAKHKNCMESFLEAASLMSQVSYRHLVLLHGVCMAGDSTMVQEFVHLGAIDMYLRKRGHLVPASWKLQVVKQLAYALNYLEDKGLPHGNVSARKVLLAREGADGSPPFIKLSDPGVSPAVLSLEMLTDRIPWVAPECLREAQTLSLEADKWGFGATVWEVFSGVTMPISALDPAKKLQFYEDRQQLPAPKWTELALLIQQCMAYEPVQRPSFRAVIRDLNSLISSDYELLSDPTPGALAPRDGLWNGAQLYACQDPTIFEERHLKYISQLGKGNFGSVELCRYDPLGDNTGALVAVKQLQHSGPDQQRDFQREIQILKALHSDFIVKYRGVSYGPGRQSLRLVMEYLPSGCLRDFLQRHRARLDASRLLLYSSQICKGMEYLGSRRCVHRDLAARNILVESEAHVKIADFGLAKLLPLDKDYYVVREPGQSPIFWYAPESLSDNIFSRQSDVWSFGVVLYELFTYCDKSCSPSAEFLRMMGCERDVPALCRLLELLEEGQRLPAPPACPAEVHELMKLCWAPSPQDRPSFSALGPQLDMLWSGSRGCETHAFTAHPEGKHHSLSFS
Experimental: as §1
(SEQ ID NO: 3) peptide substrate, 10 mM magnesium acetate and [gamma-33P]-ATP (specific activity and concentration as required). The reaction was initiated by the addition of the Mg/ATP mix. After incubation for 40 minutes at room temperature, the reaction was stopped by the addition of phosphoric acid to a concentration of 0.5%. An aliquot of the reaction was then spotted onto a filter and washed four times for 4 minutes in 0.425% phosphoric acid and once with methanol prior to drying and scintillation counting.
as §2

Human TYK-2 = target: T2, Human TYK-2 (Homo sapiens, UniProt P29597); test: JAK enzymatic assay (Eurofins KinaseProfiler/IC50Profiler, radiometric), TYK-2; type: biochemical; conditions: human TYK-2 enzyme, 9 concentrations; read-out: TYK2 affinity (IC50) category
T2 construct: purchased Eurofins Discovery (KinaseProfiler / IC50Profiler service)
Experimental: Human TYK-2 (Uniprot ID: P29597) was incubated with 8 mM MOPS pH 7.0, 0.2 mM EDTA, 250 μM […]

JAK-1 [1] = target: T3, JAK-1 (Homo sapiens, UniProt P23458); test: JAK enzymatic assay (Eurofins KinaseProfiler/IC50Profiler, radiometric), JAK-1; conditions: for JAK1/JAK2 selectivity: selectivity IC50 ratio for JAK1 versus JAK2, human enzymes
Target sequence in this assay (P23458 whole entry): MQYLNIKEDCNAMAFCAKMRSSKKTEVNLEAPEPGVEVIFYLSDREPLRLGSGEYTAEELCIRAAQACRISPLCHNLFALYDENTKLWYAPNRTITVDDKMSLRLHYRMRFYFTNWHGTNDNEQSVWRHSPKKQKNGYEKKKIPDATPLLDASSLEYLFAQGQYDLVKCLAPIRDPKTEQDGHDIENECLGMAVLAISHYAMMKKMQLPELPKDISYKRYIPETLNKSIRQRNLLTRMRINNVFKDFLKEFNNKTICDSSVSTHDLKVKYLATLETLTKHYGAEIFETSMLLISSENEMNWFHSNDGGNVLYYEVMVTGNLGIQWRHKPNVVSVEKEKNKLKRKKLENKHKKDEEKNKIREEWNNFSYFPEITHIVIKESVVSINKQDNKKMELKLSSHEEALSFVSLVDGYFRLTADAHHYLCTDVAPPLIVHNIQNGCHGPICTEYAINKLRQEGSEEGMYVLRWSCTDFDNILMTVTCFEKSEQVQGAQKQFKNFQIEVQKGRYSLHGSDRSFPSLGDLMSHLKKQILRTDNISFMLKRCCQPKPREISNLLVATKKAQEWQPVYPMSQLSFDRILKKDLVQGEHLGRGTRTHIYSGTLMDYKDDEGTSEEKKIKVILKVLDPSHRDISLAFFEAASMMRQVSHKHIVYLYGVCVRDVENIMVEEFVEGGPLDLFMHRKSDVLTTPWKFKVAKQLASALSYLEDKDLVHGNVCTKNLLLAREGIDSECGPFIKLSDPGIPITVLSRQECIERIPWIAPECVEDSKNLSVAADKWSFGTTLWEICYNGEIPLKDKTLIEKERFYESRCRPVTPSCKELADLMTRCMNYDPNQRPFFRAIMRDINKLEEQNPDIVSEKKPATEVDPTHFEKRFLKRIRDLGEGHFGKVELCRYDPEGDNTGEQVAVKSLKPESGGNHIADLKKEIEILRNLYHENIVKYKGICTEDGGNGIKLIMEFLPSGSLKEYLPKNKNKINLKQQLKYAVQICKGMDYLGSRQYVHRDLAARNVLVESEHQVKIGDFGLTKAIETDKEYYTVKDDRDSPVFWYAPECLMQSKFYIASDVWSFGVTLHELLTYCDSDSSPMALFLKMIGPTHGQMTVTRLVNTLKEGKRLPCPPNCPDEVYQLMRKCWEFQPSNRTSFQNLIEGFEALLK
Experimental: as §1
(SEQ ID NO.: 1) peptide substrate, 10 mM magnesium acetate and [gamma-33P]-ATP (specific activity and concentration as required). The reaction was initiated by the addition of the Mg/ATP mix. After incubation for 40 minutes at room temperature, the reaction was stopped by the addition of phosphoric acid to a concentration of 0.5%. An aliquot of the reaction was then spotted onto a filter and washed four times for 4 minutes in 0.425% phosphoric acid and once with methanol prior to drying and scintillation counting. A known inhibitor, Staurosporine, was used as a positive control for the assay.
Data was then imported into an internal application where each data point was expressed as % inhibition based on uninhibited and no enzyme controls. […] Inhibition values for the JAK enzymes (IC50 values) for each compound were stratified into four groups.

cJAK-1 = test: Selectivity of oclacitinib among canine JAK subtypes; type: biochemical
JAK-1 [2] = target: T3, JAK-1; conditions: Gonzales et al., 2014; cited from earlier work
Target sequence in this assay (P23458 whole entry, species assumed): as the sequence (P23458 whole entry) above

[3] = tested on: JAK1-dependent cytokines (IL-2, IL-4, IL-6, IL-13, IL-31); conditions: IL-2, IL-4, IL-6, IL-13 and IL-31; Gonzales et al., 2014; read-out: IC50 for inhibiting the function of JAK1-dependent cytokines; cited from earlier work

T2 sequence (P29597 whole entry): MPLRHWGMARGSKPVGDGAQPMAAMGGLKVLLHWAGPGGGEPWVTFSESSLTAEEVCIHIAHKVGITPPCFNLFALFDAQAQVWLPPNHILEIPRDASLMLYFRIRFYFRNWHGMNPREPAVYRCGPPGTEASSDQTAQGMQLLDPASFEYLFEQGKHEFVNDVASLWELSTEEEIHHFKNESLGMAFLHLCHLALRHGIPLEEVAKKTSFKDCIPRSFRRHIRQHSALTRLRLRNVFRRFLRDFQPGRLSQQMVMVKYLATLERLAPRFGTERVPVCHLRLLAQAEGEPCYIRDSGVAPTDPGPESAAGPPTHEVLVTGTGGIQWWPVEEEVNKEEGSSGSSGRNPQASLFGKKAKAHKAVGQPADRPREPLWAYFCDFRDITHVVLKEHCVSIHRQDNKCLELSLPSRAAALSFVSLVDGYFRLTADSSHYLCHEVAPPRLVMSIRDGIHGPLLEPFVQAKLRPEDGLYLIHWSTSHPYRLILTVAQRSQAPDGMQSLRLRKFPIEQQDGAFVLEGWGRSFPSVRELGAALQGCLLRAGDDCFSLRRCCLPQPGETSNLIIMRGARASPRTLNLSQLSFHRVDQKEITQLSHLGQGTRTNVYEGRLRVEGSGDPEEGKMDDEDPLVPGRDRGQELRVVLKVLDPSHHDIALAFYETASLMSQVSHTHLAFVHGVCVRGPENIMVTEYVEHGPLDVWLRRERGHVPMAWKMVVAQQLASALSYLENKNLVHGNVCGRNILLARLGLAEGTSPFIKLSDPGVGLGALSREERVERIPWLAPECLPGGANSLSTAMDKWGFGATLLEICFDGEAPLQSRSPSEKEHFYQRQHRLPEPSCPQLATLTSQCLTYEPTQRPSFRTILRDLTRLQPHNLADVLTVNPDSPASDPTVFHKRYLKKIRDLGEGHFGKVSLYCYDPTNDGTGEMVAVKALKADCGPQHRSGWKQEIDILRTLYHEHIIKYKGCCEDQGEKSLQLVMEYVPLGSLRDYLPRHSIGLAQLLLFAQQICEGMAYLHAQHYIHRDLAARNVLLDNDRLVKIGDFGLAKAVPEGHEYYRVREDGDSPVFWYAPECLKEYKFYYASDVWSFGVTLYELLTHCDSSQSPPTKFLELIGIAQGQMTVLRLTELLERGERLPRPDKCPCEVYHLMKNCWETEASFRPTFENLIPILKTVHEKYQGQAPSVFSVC
Chain of Human JAK-2 (O60674 whole entry): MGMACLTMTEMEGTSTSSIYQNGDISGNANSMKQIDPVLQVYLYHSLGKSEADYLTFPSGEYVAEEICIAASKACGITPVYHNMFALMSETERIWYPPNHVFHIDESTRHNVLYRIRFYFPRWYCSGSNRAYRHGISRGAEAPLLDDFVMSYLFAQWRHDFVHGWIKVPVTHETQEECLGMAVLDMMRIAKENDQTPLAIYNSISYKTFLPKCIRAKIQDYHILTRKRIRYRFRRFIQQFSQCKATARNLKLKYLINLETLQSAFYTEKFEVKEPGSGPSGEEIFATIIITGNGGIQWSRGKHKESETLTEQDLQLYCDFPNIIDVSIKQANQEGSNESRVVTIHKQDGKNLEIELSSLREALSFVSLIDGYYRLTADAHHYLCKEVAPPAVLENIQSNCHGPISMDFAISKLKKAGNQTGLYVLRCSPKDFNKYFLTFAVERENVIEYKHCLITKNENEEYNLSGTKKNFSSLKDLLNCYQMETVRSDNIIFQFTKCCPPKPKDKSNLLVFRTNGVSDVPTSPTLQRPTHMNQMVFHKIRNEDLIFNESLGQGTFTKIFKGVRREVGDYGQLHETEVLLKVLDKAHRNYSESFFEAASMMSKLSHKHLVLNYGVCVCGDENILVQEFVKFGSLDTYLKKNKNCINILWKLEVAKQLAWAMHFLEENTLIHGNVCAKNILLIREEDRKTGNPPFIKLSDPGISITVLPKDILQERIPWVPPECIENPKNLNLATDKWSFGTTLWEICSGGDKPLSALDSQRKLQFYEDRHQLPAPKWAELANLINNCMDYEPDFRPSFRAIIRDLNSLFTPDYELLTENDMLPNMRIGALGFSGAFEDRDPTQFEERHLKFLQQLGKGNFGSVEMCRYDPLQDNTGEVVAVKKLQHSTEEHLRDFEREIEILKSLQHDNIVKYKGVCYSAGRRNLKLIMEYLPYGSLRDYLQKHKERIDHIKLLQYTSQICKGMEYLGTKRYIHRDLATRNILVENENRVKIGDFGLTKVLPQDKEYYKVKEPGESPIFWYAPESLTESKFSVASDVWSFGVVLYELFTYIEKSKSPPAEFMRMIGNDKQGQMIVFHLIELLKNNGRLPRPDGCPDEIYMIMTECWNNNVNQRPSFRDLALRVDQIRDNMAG

Row | Compound | IC50 (Human JAK-2) | IC50 (Human JAK-3) | IC50 (Human TYK-2) | IC50 (JAK-1 [1]) | JAK1/JAK2 selectivity (JAK-1 [1]) | selectivity toward cJAK-2, cJAK-3, and cJAK-4 relative to cJAK-1 (cJAK-1) | IC50 (JAK-1 [2]) | IC50 [3]
1 | CC(C)NS(=O)(=O)c1ccc(NC(=O)C(C)N2CCN(c3ncnc4[nH]ccc34)CC2)cc1 (stereo not drawn) [Compound 17, 2-(4-(7H-pyrrolo[2,3-d]pyrimidin-4-yl)piperazin-1-yl)-N-(4-(N-isopropylsulfamoyl)phenyl)propenamide] | > 1000 nM | > 1000 nM | > 1000 nM | 250 to 500 nM | 7 |  |  | 
2 | CC(C)NS(=O)(=O)c1ccc(NC(=O)[C@@H](C)N2CCN(c3ncnc4[nH]ccc34)CC2)cc1 [Compound 18, (R)-2-(4-(7H-pyrrolo[2,3-d]pyrimidin-4-yl)piperazin-1-yl)-N-(4-(N-isopropylsulfamoyl)phenyl)propanamide] | < 250 nM | 500 to 1000 nM | > 1000 nM | 250 to 500 nM | 4 |  |  | 
3 | CC(C(=O)Nc1ccc(S(=O)(=O)N2CCCCC2)cc1)N1CCN(c2ncnc3[nH]ccc23)CC1 (stereo not drawn) [Compound 20, 2-(4-(7H-pyrrolo[2,3-d]pyrimidin-4-yl)piperazin-1-yl)-N-(4-(piperidin-1-ylsulfonyl)phenyl)propenamide] | > 1000 nM | > 1000 nM | 500 to 1000 nM | 500 to 1000 nM | 2 |  |  | 
4 | CNS(=O)(=O)C[C@H]1CC[C@H](N(C)c2ncnc3[nH]ccc23)CC1.O=C(O)/C=C\C(=O)O [Oclacitinib, N-methyl[trans-4-(methyl-7H-pyrrolo[2,3-d]pyrimidin-4-ylamino)cyclohexyl]methanesulfonamide (2Z)-2-butenedioate] |  |  |  |  |  | relatively low | 10 nM | 36 to 249 nM

— US20260092070A1, “INHIBITORS OF CANINE JANUS KINASE AND USES THEREOF” (ANIMOL DISCOVERY, INC., priority 2023, published 2026)
